Key:
[1] = system: HIV-1 infected and uninfected cells; assay: Classification of inhibitors by effect on viability of infected versus uninfected cells; format: cell-based; conditions: high
Description: The inhibitors were classified into three categories: high, moderate or poor, according to their effect on cellular viability in both HIV-1 infected and uninfected cells. Among the compounds tested in this study, CR8, a purine analog bearing a 2-pyridyl group para to the phenyl ring position 6 of the purine was the most promising drug candidate that killed HIV-1 infected cells, while having little or no effect on the death of uninfected cells.

3′TAR and 5′TAR microRNA = assay: Poly-A RT-PCR of TAR microRNA in TZM-bl cells with or without TSA; format: cell-based, HIV-1; conditions: for 3′ TAR microRNA amount: non-TSA treated TZM-bl cells, Flavopiridol 50 nm, CR8 100 nm, CR8#13 100 nm
Experimental: RNA was extracted 48 hrs-post drug treatment. 500 ng of RNA from the microRNA-enriched fraction was used to generate cDNA using the Quantimir kit (SBI) in order to poly adenylate small RNA species. RT reactions were performed followed by PCR in which a universal reverse primer was provided by the manufacturer. Specific microRNA forward primers are identical in sequence to the microRNA of interest. PCR products corresponding to the amplified microRNAs were separated in a 3.5% (w/v) agarose gel. The PCR products are at around 67 bp as compared with the Fermentas 1 kb DNA Plus Ladder. Increased levels of 3′TAR microRNA were produced post CR8#13 treatment.
For poly-A RT-PCR detection of microRNAs, 500 ng of RNA from the microRNA-enriched fraction was used to generate cDNA using the Quantimir kit (SBI) according to the manufacturer's protocol. Briefly, small RNA species are poly-adenylated and then reverse transcription reactions are performed with a company-provided RT primer. For PCR, a universal reverse primer is provided by the manufacturer. Specific microRNA forward primers are identical in sequence to the microRNA of interest. PCR products corresponding to the amplified microRNAs were separated in a 3.5% (w/v) agarose gel and quantified using the Kodak 1D software.
To determine whether the cdk inhibitors Flavopiridol, CR8, and CR8#13 increased levels of TAR microRNA in the TSA-treated and control TZM-bl cells total RNA was extracted from both TSA treated and control cells treated with Flavopiridol, CR8, and CR8#13 and processed for RT-PCR detection of microRNAs, specifically, for the presence of 3′TAR and 5′TAR molecules.

[2] = system: OM10.1 cells (HIV-1 infected); assay: Cell viability by trypan blue exclusion, 48 hours; format: cell-based
Experimental: (§1) In brief, the inhibition studies were carried out as follows. HIV-1 infected cells ACH2, J1.1, OM10.1, U1 and uninfected CEM, Jurkat T-cells, and U937 were cultured in media. The appropriate inhibitor was added at a concentration of 10 μM. Cells were treated for 48 hours and cell viability was determined using trypan blue exclusion method. Results of such a screen for 19 inhibitors is shown in Table 1 where percent dead cells are indicated each drug tested.
(§2) Again HIV-1 infected and uninfected cells were treated with eighteen Formula I compounds at a drug concentration of 50 nm. Forty-eight hours after treatment, cytotoxicity was determined by trypan blue dye exclusion. Percent inhibition was calculated after obtaining the cell density for each well of the tissue culture plate at the end of 48 hrs.

[3] = system: J1.1 cells (HIV-1 infected); assay: Cell viability by trypan blue exclusion, 48 hours; format: cell-based
Experimental: as §1, §2

[4] = system: U1 cells (HIV-1 infected); assay: Cell viability by trypan blue exclusion, 48 hours; format: cell-based
Experimental: as §1, §2

[5] = system: uninfected CEM, Jurkat T-cells, and U937 cells; assay: MTT assay, uninfected cells; format: cell-based
Experimental: FIGS. 1 and 2 show screening results of CR8 derivatives on Tat-dependent transcription HIV-1 LTR. […] TZM-bl cells were transfected with 1 ug of Tat and treated the next day with DMSO, or the indicated CR8 derivative compounds at 50 nm. 48 hrs-post drug treatment, luciferase activity of the firefly luciferase was measured with the BrightGlo Luciferase Assay and luminescence was read from a 96 well plate on an EG&G Berthold luminometer. Assays were performed in triplicate, average and standard deviations are shown.
Quantitative MTT assays were performed (FIG. 2), to further validate the cell growth inhibitory activity of certain Formula I compounds. In this study, cultured, infected ACH2, J1.1, OM10.1, U1 and uninfected CEM, Jurkat T-cells, and U937 cells were brought in contact with Formula I compounds CR8, MRT-033, and BJFP1154 (CR8#13). Cell growth inhibition study was performed at two different concentrations of the inventive compounds, a low concentration of 50 nm, and high concentration of 10 μM.

CEM cells (uninfected) = assay: Cell viability by trypan blue exclusion, 48 hours; format: cell-based
Experimental: (§3) TZM-bl cell lines were grown in Dulbecco's modified Eagle's medium supplemented with fetal bovine serum (FBS) (10%, v/v), 2 mM L-glutamine, and antibiotics (penicillin 100 U/ml, streptomycin […]) (cDMEM). HCT116 WT and HCT116 Dicer−/−cell lines were grown in McCoy's medium supplemented with FBS (10%, v/v), 2mM L-glutamine, and antibiotics (penicillin 100 U/ml, streptomycin […]). CEM, ACH2, Jurkat and U937 cells were grown in RPMI 1640 supplemented with FBS, L-glutamine, and antibiotics (penicillin 100 U/ml, streptomycin […]). All cell lines were maintained at 37° C. in 5% (v/v) CO2.
(§4) ACH2 cells are infected with HIV-1; TZM-bl cells contain a stably-integrated HIV-1 LTR-Luciferase reporter; CEM, Jurkat, and U937 cells are uninfected. Transfections were carried out using Attractene (Qiagen) lipid reagent. Cells were cultured to confluence and pelleted at 4° C. for 15 min at 3,000 rpm. The cell pellets were washed twice with 25 ml of phosphate-buffered saline (PBS) with Ca2+ and Mg2+ (Quality Biological) and centrifuged once more. Cell pellets were resuspended in lysis buffer (50 mM Tris-HCl, pH 7.5, 120 mM NaCl, 5 mM EDTA, 0.5%, v/v, NP-40, 50 mM NaF, 0.2 mM Na3VO4, 1 mM DTT, one complete protease cocktail tablet/50 ml (Roche) and incubated on ice for 20 min, with gentle vortexing every 5 min. Cell lysates were transferred to eppendorf tubes and were centrifuged at 10,000 rpm for 10 min. Supernatants were transferred to a fresh tube where protein concentrations were determined using Bio-Rad protein assay (Bio-Rad, Hercules, Calif.).
as §1, §2

U937 cells (uninfected) = assay: Cell viability by trypan blue exclusion, 48 hours; format: cell-based
Experimental: as §3, §4, §1, §2

Structure (SMILES)	Selectivity ([1]; 10 μM, moderate or poor by effect on viability of infected and uninfected cells)	3′ and 5′ TAR microRNA amount (3′TAR and 5′TAR microRNA; TZM-bl cells treated with TSA for 7 days, then drug)	3′ TAR microRNA amount (3′TAR and 5′TAR microRNA)	inhibition at 10 µM ([2]; Human immunodeficiency virus 1, 48 h, read-out: % Inhibition (percent dead cells) OM10.1) [%]	inhibition at 10 µM ([3]; Human immunodeficiency virus 1, 48 h, read-out: % Inhibition (percent dead cells) J1.1) [%]	inhibition at 10 µM ([4]; Human immunodeficiency virus 1, 48 h, read-out: % Inhibition (percent dead cells) U1) [%]	cell inhibition of uninfected cells (MTT) ([5]; 50 nm and 10 μM)	inhibition at 10 µM (CEM cells (uninfected); Homo sapiens, CCRF-CEM, 48 h, 10 μM, 48 hours, read-out: % Inhibition (percent dead cells) CEM) [%]	inhibition at 10 µM (U937 cells (uninfected); Homo sapiens, U-937, 10 μM, 48 hours, read-out: % Inhibition (percent dead cells) U937) [%]	Selectivity ([1]; 50 nM, moderate or poor)	Inhibition Percentage OM10.1 ([2]; 50 nM, 48 hrs, HIV-1 infected)	Inhibition Percentage J1.1 ([3]; 50 nM, 48 hrs, HIV-1 infected)	Inhibition Percentage U1 ([4]; 50 nM, 48 hrs, HIV-1 infected)	death of uninfected cells (MTT) ([5]; high concentration of 10 μM)	Inhibition Percentage CEM (CEM cells (uninfected); 50 nM, 48 hrs)	Inhibition Percentage U937 (U937 cells (uninfected); 50 nM, 48 hrs)
CC[C@@H](CO)Nc1nc(NCc2ccc(-c3ccccn3)cc2)c2ncn(C(C)C)c2n1 [CR8]	High	higher amounts of both 3′ and 5′ TAR microRNA	significantly increased amount of the 3′ TAR microRNA	75	75	90	some cell inhibition activity of uninfected cells	25	50	–	–	–	–	–	–	–
CC(C)c1cnn2c(NCc3ccc(-c4ccccn4)cc3)nc(NC[C@H](O)CO)nc12.O=C(O)/C=C/C(=O)O [BJFP1154]	–	–	significantly increased amount of the 3′ TAR microRNA	–	–	–	–	–	–	Poor	− (1-5%)	− (1-5%)	− (1-5%)	marginal, if any death of uninfected cells	− (1-5%)	− (1-5%)
